According to PubChem BioAssay AID1259426 (Fisher Drug Discovery Resource Center, 2018):
Values joined by “and” are separate entries in the source; they are usually repeats but may differ in a detail not shown here. Identical values can stand only once. Active and inactive are the calls of the source.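 Rule for the calls: active = EC50 under a set limit in control cells lacking the mosquito receptor, marking a fluorescence artifact; inactive = the rest.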

Target: HEK293 Galpha15/GCaMP6s without NPYLR7, calcium fluorescence
Assay: calcium response in NPYLR7-null HEK293 cells, dose response, counter-screen for mosquito NPYLR7 agonist project, cell-based, HEK293 lacking NPYLR7 (AID 1259426);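 note: potency for a rise in fluorescence over baseline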

Structure (SMILES)	EC50
CCN1CCc2c(sc(NC(=O)c3ccccc3)c2-c2nc3ccccc3s2)C1	> 20 µM (inactive)
COc1cc(/C=C2\SC(=S)N(c3cccc(C(=O)O)c3)C2=O)ccc1O	> 20 µM (inactive)
CN1C(=CC=C2C(=O)Oc3ccccc3C2=O)C(C)(C)c2ccccc21	1.98 µM
CCOC(=O)C1CCN(C(=O)CC(c2cccc(C(F)(F)F)c2)c2c[nH]c3c(CC)cccc23)CC1 (stereo unspecified)	> 20 µM (inactive)
CC(C)C(=O)Nc1sc2c(c1-c1nc3ccccc3s1)CCN(C(C)C)C2	> 20 µM (inactive)
Cc1ccc(C(=O)C=Cc2ccc(N(C)C)cc2)o1	< 0.039 µM
O=c1[nH]c(SCCO)nc2sc3c(c12)CCCC3	> 20 µM (inactive)
Clc1cccc2ccc(CN3CCn4cncc4C3)nc12	19.2 µM
O=[N+]([O-])c1ccc(-n2nc3ccc4nonc4c3n2)cc1	> 20 µM (inactive)
O=c1oc2cc(O)ccc2cc1-c1nc2ccccc2o1	4.91 µM
CCCc1[nH]n(-c2ccc(Cl)cc2)c(=O)c1/C=C1\NC(=O)N(Cc2ccc(C)cc2)C1=O	> 20 µM (inactive)
COc1cc(Br)c(O)c(/C=N\n2c(C)n[nH]c2=S)c1	> 20 µM (inactive)
Cn1c(/C(C#N)=C/c2ccc(N3CCOCC3)o2)nc2ccccc21	> 20 µM (inactive)
C[C@H](O)C(=O)C1=Nc2c(nc(N)[nH]c2=O)NC1	> 20 µM (inactive)
O=C1/C(=C/c2cc3ccccc3o2)Oc2c1ccc(O)c2CN1CCN(CCO)CC1	1.94 µM
Cc1ccc(Cl)c(Oc2cc(N3CCN(C(=O)c4ccc(Cl)c(Cl)c4)CC3)ncn2)c1	> 20 µM (inactive)
O=C(O)CN1C(=O)/C(=C\c2cc([N+](=O)[O-])cc(Br)c2O)SC1=S	1.07 µM
Fc1cc(F)cc(C2C=C(c3ccco3)Nc3ncnn32)c1 (stereo unspecified)	8.31 µM
COc1cc(C(=O)N2CCOC(c3ccccc3)C2)cc(OC)c1C (stereo unspecified)	> 20 µM (inactive)
O=C(C1=NN(c2ccccc2)C2C(=O)N(c3ccccc3)C(=O)C12)c1ccccc1 (stereo unspecified)	> 20 µM (inactive)
CCC(C)[n+]1c(C)cc(C=C2Sc3ccccc3N2CC)cc1C (stereo unspecified)	3.73 µM
Nc1ccc2c3c(cccc13)C(=O)NC2=O	2.07 µM
COc1ccccc1OCCCOc1ccc(Br)cc1Cl	> 20 µM (inactive)
Cc1ccc(CNC(=O)NC(c2ccc3c(c2)OCCCO3)C(C)C)cc1F (stereo unspecified)	> 20 µM (inactive)
COc1cccc(CNC2CC2)c1OCc1nc(CO)cs1	> 20 µM (inactive)
CNCC(O)c1ccc(O)c(O)c1 (stereo unspecified)	0.327 µM

Structure (SMILES)	EC50
CCNC(=O)[C@H]1O[C@@H](n2cnc3c(N)ncnc32)C(O)[C@H]1O (stereo partly specified)	< 0.039 µM
COc1ccc2oc(=O)c(-c3nnc(Nc4cc(Cl)ccc4OC)s3)cc2c1	> 20 µM (inactive)
Cc1cccc(C2=N/C(=C\c3cc4cc5c6c(c4oc3=O)CCCN6CCC5)C(=O)O2)c1	0.219 µM
COc1ccc(C(=O)C=Cc2cc(OC)c(O)c(OC)c2)cc1F	5.86 µM
CCOCCCN1C(=O)C(=Cc2ccccc2O)NC1=S	0.0898 µM
C[n+]1c2cc(N)ccc2cc2ccc(N)cc21	< 0.039 µM
Cc1ccccc1CNc1ncnc2c1ncn2C1OC(CO)C(O)C1O (stereo unspecified)	6.77 µM
N#CC(C#N)=C1C=C2C=C(N3CCCCC3)CCC2CC1 (stereo unspecified)	< 0.039 µM
Cc1cc(O)c(CN2CCN(C)CC2)c2c1C(=O)/C(=C/c1cccs1)O2	16.8 µM
CCOc1cc(/C=C2\C(=N)N3N=CSC3=NC2=O)cc(Br)c1OC(=O)c1ccccc1	3.04 µM
CCN1C(=Cc2cc(C)[n+](CCOC)c(C)c2)Sc2ccccc21	17.6 µM
CNC[C@@H](O)c1ccc(O)c(O)c1	< 0.039 µM
CCN(CC)Cc1c(O)cc(C)c2c1O/C(=C\c1cc3ccccc3o1)C2=O	9.1 µM
CCCc1ccccc1N1C(=O)CSC1c1ccc(NC(=O)CCl)cc1 (stereo unspecified)	> 20 µM (inactive)
Nc1c(S(=O)(=O)O)cc2c3c(cccc13)C(=O)N(CCO)C2=O	0.154 µM
COc1ccc(/C=C2\Oc3c(ccc4c3CN(CC3CCCO3)CO4)C2=O)cc1OC (stereo unspecified)	4.8 µM
CCN1CCN(C(=O)c2ccc(Cn3ccsc3=NC(=O)c3ccc(OC)c(OC)c3)o2)CC1	> 20 µM (inactive)
CCN=c1cc2oc3cc(NCC)c(C)cc3c(-c3ccccc3C(=O)OCC)c-2cc1C	0.0953 µM
Cn1c(C(C#N)=Cc2c(F)c(F)c(F)c(F)c2F)nc2ccccc21	< 0.039 µM
OCCN(CCO)c1nc(N2CCCCC2)c2nc(N(CCO)CCO)nc(N3CCCCC3)c2n1	3.58 µM and 1.94 µM
Cc1[nH]c(/C=C2\C(=O)Nc3ccccc32)c(C)c1CCC(=O)O	< 0.039 µM
O=C(O)c1[nH]ncc1CN1CCc2onc(-c3ccc(C(F)(F)F)cc3)c2C1	> 20 µM (inactive)
Cc1ccc(OCCNC(=O)N2CCN(S(=O)(=O)c3ccccc3Cl)CC2)c(C)c1	> 20 µM (inactive)
Cc1cccc(N2C(=O)NC(=O)/C(=C/c3cn(C)c4ccccc34)C2=O)c1	> 20 µM (inactive)
CCCS(=O)(=O)N1CCN=C1SCc1ccccc1C	> 20 µM (inactive)
